Here are results for two compounds from patent US6015818A, “Quinoline derivatives as bradykinin agonists” (Fujisawa Pharmaceutical Co., Ltd., priority 1996, dated 2000).

One assay addresses T1, Bradykinin receptor (Cavia porcellus, UniProt O70526).
T1 construct: The ileum was removed and homogenized in buffer; from tissue; host or cells: guinea pig (male Hartley strain) ileum, crude membrane suspension
T1 sequence (O70526 1-372): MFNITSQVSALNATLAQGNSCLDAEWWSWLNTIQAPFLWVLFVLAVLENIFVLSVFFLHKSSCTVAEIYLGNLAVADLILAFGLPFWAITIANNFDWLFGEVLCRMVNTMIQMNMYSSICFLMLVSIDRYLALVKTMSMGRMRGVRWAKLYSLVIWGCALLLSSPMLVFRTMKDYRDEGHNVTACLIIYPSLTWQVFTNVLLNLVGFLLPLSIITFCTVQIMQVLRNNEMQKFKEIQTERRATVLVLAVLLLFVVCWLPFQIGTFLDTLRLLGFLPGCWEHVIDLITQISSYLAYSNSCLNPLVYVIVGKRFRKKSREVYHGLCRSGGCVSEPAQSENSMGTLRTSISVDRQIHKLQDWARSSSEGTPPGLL
Kind of assay: 3H-Bradykinin receptor binding (crude guinea pig ileum membrane). More on the design: species or system guinea pigs. Conditions: 3H-Bradykinin 0.06 nM, room temperature, 60 minutes, read-out: Inhibition of ^3 H-Bradykinin binding: IC50. As to the method:
(I) ^3 H-Bradykinin receptor binding
(a) Crude ileum membrane preparation
Male Hartly strain guinea pigs were sacrificed by decapitation. The ileum was removed and homogenized in buffer (50 mM 2-[[tris(hydroxymethyl)methyl]amino]-1-ethanesulfonic acid (TES), 1 mM 1,10-phenanthroline pH 6.8). The homogenate was centrifuged (1000×g,20 minutes) to remove tissue clumps and the supernatant was centrifuges (100,000×g, 60 minutes) to yield a pellet. The pellet was resuspended in buffer (50 mM TES, 1 mM 1,10-phenanthroline, 140 mg/l bacitracin, 1 mM dithiothreiol, 0.1% bovine serum albumin pH 6.8) and homogenized with a glass-teflon homogenizer to yield suspension which was referred to as crude membrane suspension. The obtained membrane suspension was stored at -80° C. until use.
(b) ^3 H-Bradykinin binding to the membrane
The frozen crude membrane suspension was thawed. In binding assays, ^3 H-Bradykinin (0.06 nM) and drug were incubated with 50 μl of the membrane suspension at room temperature for 60 minutes in a final volume of 250 μ1. Separation of receptor-bound from free ^3 H-Bradykinin is achieved by immediate filtration under vacuum and washed three times with 5 ml of ice-cold buffer (50 mM Tris-HCl pH 7.5). Non-specific binding was defined as binding in the presence of 0.1 μM Bradykinin. The radioactivity retained on rinsed filters was determined by a liquid-scintillation counter.

Another assay has as its system WI-38 PGE2 production. Put plainly: Prostaglandin E2 (PGE2) production in human fibroblasts (WI-38). Type of assay: cell-based. Particulars: WI-38, 0.5 h, concentration: 1 × 10^-6 M, 30 minutes at 37° C., PGE2 by EIA, read-out: WI-38 PGE2 production increase ratio. As to the method:
(II) Prostaglandin E2 (PGE2) production in human fibroblasts
The assay of PGE2 production was modified from the procedure described in The Journal of Biological Chemistry, 257, 8630-8633 (1982).
Human fibroblasts (WI-38, ATCC CCL75) were grown in Eagle's Minimum Essential Medium [E-MEM: ICN Biomedical Inc., Cat. No. 10-101-24 (47.6 g) with sodium bicarbonate (11.0 g), penicillin G potassium salt (0.5 g), streptomycin sulfate (0.5 g) in water (5000 ml) and 10% fetal bovine serum]. The cells were placed into the quiescent state after confluence was reached.
(b) Measurements of PGE2 production
WI-38 cells were seeded in 24-well plates at a density of 1×10^5 cells/well with 0.5 ml of E-MEM including 1% fetal bovine serum and were cultured for 1 day. The mediums in 24-well plates in which WI-38 cells were cultured were removed by aspiration and Hanks-bovine serum albumin buffer [Hanks-BSA Buffer: Hanks' balanced salts (4.9 g), sodium bicarbonate (0.1 g) and bovine serum albumin (protease free) (0.5 g)] was added thereto. […] Supernatant was collected, and PGE2 level included therein was measured by PGE2 EIA Kit (Cayman Chemical Co.).

Consider `COc1nc2c(OCc3c(Cl)ccc(N(C)C(=O)CNC(=O)/C=C/c4ccc(NC(C)=O)nc4)c3Cl)cccc2n1Cc1ccccn1` [Example 9, 4-[3-[N-[(E)-3-(6-acetamidopyridin-3-yl)acryloylglycyl]-N-methylamino]-2,6-dichlorobenzyloxy]-2-methoxy-1-(2-pyridylmethyl)-1H-benzimidazole], for which, on Bradykinin receptor, the IC50 was 6.3 nM. Further, the fold induction at 1 µM in the assay with WI-38 PGE2 production came to 10.8.
Consider `CNC(=O)c1ccc(C=CC(=O)NCC(=O)N(C)c2ccc(Cl)c(COc3cccc4c(OCc5ccccn5)cc(C)nc34)c2Cl)cc1` [Example 1-(2), 8-[2,6-dichloro-3-[N-[4-(methylcarbamoyl)cinnamoylglycyl]-N-methylamino]benzyloxy]-2-methyl-4-(2-pyridylmethoxy)quinoline], for which the IC50 on Bradykinin receptor amounted to 0.99 nM. The fold induction at 1 µM in the assay with WI-38 PGE2 production is 7.95.

As a reminder, the IC50 is the point on the concentration scale where inhibition reaches its midpoint.
